The subject of assay [1] is hTNFα-induced neutrophil recruitment. Briefly: Neutrophil recruitment in mice, compound pre-mixed with hTNFα, i.p. As to conditions: for neutrophil recruitment vs TNFα in the absence of the compound: sample 1, ratio compound:TNFα 0.1:1, i.p. Format: in vivo, Balb/c mice. As to the method: In separate studies, compounds of formula (3) and formula (15) were mixed with 20 μM solutions of TNFα dissolved in phosphate buffered saline (PBS) to a concentration of 2 μM, 20 μM and 200 μM. The ratio of each compound to TNFα was, therefore, 0.1:1 (sample 1), 1:1 (sample 2) and 10:1 (sample 3). […] This process separates protein bound compound and free compound. A control sample containing PBS only was processed in the same way to provide a vehicle control for the study. The concentration of eluted protein was determined using a Nanodrop (ND-1000). The TNFα: compound complexes were diluted in PBS to a concentration for injection of 0.03 μg/kg
For the study, typically, each group contained 10 male Balb/c mice (Charles River) apart from an anti-human TNFα antibody positive control, which used a set of 5 mice.
Compound only mice were also included in the study to assess the effect of compound on neutrophil recruitment.
All mice were killed by cervical dislocation two hours post-injection of hTNFα (t=2 h) and the peritoneal cavity was lavaged with 3 mL of FACS buffer (500 mL PBS containing 2 g bovine serum albumin, 6 mL HEPES buffer and […]). Lavage fluid was aspirated and neutrophil numbers were assessed by staining cells with anti-Gr1 PE and anti-CD45 FITC by FACS as detailed below.
100 μL of lavage fluid from each sample was aliquoted into FACS tubes. A FACS cocktail was made up using anti-GR-1 PE (BD cat #553128 Lot #75542) at 1 in 39 dilution and anti-CD45 FITC (BD cat #553080 Lot #80807) at 1 in 19 dilution in FACS buffer. Fc block (BD Cat #553142 Lot #87810) was prepared 1 in 10 with FACS buffer and 10 μL added to each sample 5 minutes before adding the antibody cocktail. […] Samples were then left for 20 mins on ice. 1 mL of FACS Lyse solution (BD Cat #349202 Lot #29076, diluted 1:10 in dH2O) was added to each tube, mixed and left at room temperature for 5 minutes. 1 mL of FACS Buffer was then added to each tube and centrifuged at 400 g for 5 minutes. The FACS buffer was then carefully poured off and the tip of the tube dabbed on absorbent paper to leave the tube completely dry. Then […] of 1 in 10 Reference Bead solution (Sigma cat #P2477 Lot #116K1612) diluted in FACS buffer was added to each tube.
Samples were analysed using FACScalibur II and FloJo software.

In assay [2] the target is T1, TNFα (Homo sapiens, UniProt P01375). Briefly: Monomer exchange mass spectrometry, compound pre-incubated with h-TNFα. As to conditions: 1:1 complex mixed with m-TNFα, 18 hours. Set-up: made in house. Format: binding. The method, then:
Human and mouse homotrimers of TNFα (H3 and M3 respectively) were incubated together and aliquots of the solution monitored by mass spectrometry appearance of the cross species heterotrimers. The mass spectrometric analysis confirmed that monomer exchange between native TNFα trimers was able to occur in solution. The exchange rate was slow and was monitored over a course of 4 hours before full equilibration was achieved (data not shown). The mechanism is unknown, although is it unlikely to involve formation of the dimeric forms as none of these were observed. Monomer exchange is likely to be occurring between pure human and mouse trimers, the mixing of mouse and human trimers simply makes this exchange visible by mass spectrometry.
In a second series of experiments an excess of the compound of formula (3) was incubated with Human TNFα, the excess compound of formula (3) was then removed. Mass Spectral analysis confirmed that a 1:1 complex had been formed between the compound of formula (3) and h-TNFα. Mouse TNFα was now added to this sample which was then subjected to mass spectral analysis over a number of hours. After 18 hours there was no observed change in the composition of the sample. […] In addition, there was no evidence of formation of the M3L species and no evidence of formation of the unligated H3 species. […]

In assay [3] the target is T2, Mouse TNFα (Mus musculus, UniProt P06804).
T2 construct: made in house
T2 sequence (P06804 80-235 limits assumed): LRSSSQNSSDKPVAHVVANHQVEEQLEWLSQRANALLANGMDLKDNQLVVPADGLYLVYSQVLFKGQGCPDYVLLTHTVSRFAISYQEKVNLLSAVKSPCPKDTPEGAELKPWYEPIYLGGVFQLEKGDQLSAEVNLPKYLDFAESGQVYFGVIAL
Put plainly: Monomer exchange mass spectrometry, compound pre-incubated with m-TNFα. Format: binding. As to conditions: 1:1 complex mixed with h-TNFα. The method, then: The experiment was then repeated in reverse. Excess compound of formula 3 was incubated with Mouse TNFα, the excess compound of formula (3) was then removed. Mass Spectral analysis confirmed that a 1:1 complex had been formed between the compound of formula (3) and m-TNFα. Human TNFα was now added to this sample which was then subjected to mass spectral analysis over a number of hours. […] In addition there was evidence of formation of the ligated human homotrimer (H3L), the unligated mouse homotrimer (M3) and for unbound compound of formula (3) (L). […] Once this complex (M3L) has dissociated, monomer subunit exchange between the H3 and M3 species proceeds and the liberated ligand is then able to form complexes with all 4 trimer species present in solution.

Assay [4] has as its target T1, TNFα. Put plainly: Fluorescence probed thermal denaturation assay (Thermofluor) of TNFα. As to conditions: TNFα + 5% DMSO + compound. The class given is binding. As to the method: A fluorescence probed thermal denaturation assay was performed to assess the effect of the compounds on the thermal stability of TNFα as a measure of compound binding. The reaction mix contained 5 μl of 30×SYPRO® Orange dye (Invitrogen) and 5 μl of TNFα (at 1.0 mg/ml), 37.5 μl PBS, pH 7.4 and 2.5 μl of compound (at 2 mM in DMSO). 10 μl of the mix was dispensed in quadruplicate into a 384 PCR optical well plate and was run on a 7900HT Fast Real-Time PCR System […]. PCR
System heating device was set at 20° C. to 99° C. with a ramp rate of 1.1° C./min; fluorescence changes in the wells were monitored by a Charge-coupled device (CCD). The fluorescence intensity increase was plotted as a function of temperature and the Tm calculated as the midpoint of this denaturation curve (determined as the point of inflection) (Table 1).
Thermofluor measures the change of melting temperature (Tm) of TNFα due to compound either stabilising or disrupting the protein.
(In general: DSF heats the sample and reads unfolding from a dye or from intrinsic fluorescence.)

[5] abbreviates: sample 2, ratio compound:TNFα 1:1, i.p.
Setting [6] is: sample 3, ratio compound:TNFα 10:1, i.p.

T1 sequence (P01375 77-233 limits assumed): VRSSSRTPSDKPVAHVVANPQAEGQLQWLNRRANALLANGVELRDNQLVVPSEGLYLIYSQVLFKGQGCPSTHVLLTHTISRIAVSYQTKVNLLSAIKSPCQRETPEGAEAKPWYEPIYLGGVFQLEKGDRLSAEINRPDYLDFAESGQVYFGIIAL

As to `Cc1ccc(C)c(Cn2c(C(O)c3ccncc3)nc3ccccc32)c1` (centres unmarked) [Compound 3], the “neutrophil recruitment vs TNFα in the absence of the compound” value in assay [1] is “not significantly different”. Also, in assay [1] (setting [5]), the “inhibition of neutrophil recruitment” value is 86%. The “inhibition of neutrophil recruitment” value in assay [1] (setting [6]) was found to be 85%. The “off-rate when complexed with h-TNFα” value in assay [2] is on record as “no measurable off-rate”. For the same compound, the “off-rate when complexed with m-TNFα” value in assay [3] is “measurable off-rate”. For the same compound, in assay [4], the “Tm (° C.) (mean ± sd)” value is on record as 73.2 ± 0.6 (n = 4) ° C and the “Tm difference (= (TNF + cpd) - (TNF + DMSO))” value came to 11.8 °C.
As for `Cc1ccc(C)c(Cn2c(C(O)c3ccncc3)nc3ccc(-c4cnn(C)c4)cc32)c1` (centres unmarked) [Compound 15], the “neutrophil recruitment vs TNFα in the absence of the compound” value in assay [1] is given as “not significantly different”. Further, the “inhibition of neutrophil recruitment” value in assay [1] (setting [5]) is given as 101%; in assay [1] (setting [6]), 102%. Moreover, in assay [2], the “off-rate when complexed with h-TNFα” value was “no measurable off-rate”. For the same compound, the “off-rate when complexed with m-TNFα” value in assay [3] is reported as “no measurable off-rate”. The “Tm (° C.) (mean ± sd)” value in assay [4] is listed as 78.5 ± 1.1 (n = 4) ° C. In assay [4], the “Tm difference (= (TNF + cpd) - (TNF + DMSO))” value stood at 17.1 °C.

The values are drawn from patent publication US11674967B2, “Method of identifying potential inhibitors of APO TNFα trimers” (UCB BIOPHARMA SRL, priority 2015, dated 2023).
